Type in all cases: binding
In assay [1] the target is PmrA-DNA complex (Klebsiella pneumoniae, UniProt W9BNR5). The assay can be described thus: Fluorescence polarization (FP) assay of inhibition of PmrA-DNA complex formation. On the procedure: (§1) Fluorescence Polarization (FP) Measurements
(§2) Compounds, E1-E5, were purchased from InterBioScreen (Moscow, Russia) (E1: STOCK1S-95047; E2: STOCK1N-13224; E3: STOCK1N-16691; E4: STOCK 1 S-43938; E5: STOCK1S-55283), and the purity are over 90% examined by NMR. The oligonucleotides (5′-[…]-3′, SEQ ID NO: 2) labeled with 6-carboxyfluorescein (6-FAM) at the 5′-position, was dissolved in 10 mM sodium phosphate and 15 mM NaCl pH 7.0 for fluorescence polarization experiments. About 10 μl activated PmrA (prepared in 10 mM sodium phosphate and 15 mM NaCl at pH7.0) was first added into the well of ELISA plate. Then, 1 μl of serial diluted inhibitors, E1-E5, (prepared in the sample buffer of activated PmrA) were mixed with the PmrA (final concentration Of 30 μM) to reach the interested concentrations and incubated at 25° C. for 10 mins. Subsequently, 9 μl of 6-FAM-labeled DNA (final concentration of 10 nM) was added into the reaction, incubating at 25° C. for another 10 mins. Reactions were measured 3 times by use of a SpectraMax Paradigm plate reader (Molecular Devices, CA, USA) with excitation wavelength 485 nm and emission wavelength 535 nm. The inhibition % was derived according to the following equation:
(§3) [formula] in which (D), (P+D), and (P+I+D) are the polarization intensity of DNA alone, PmrA with DNA, and PmrA mixed with inhibitor then incubated with DNA, respectively.
(§4) Fluorescence polarization (FP) was first employed to access the inhibitory abilities of E1-E5 against the formation of PmrA-DNA complex in accordance with procedures described in the section of “Materials and Methods.” Results are depicted in FIG. 1, panels E and F, and Table 1.
(In general: Polarisation of emitted light reports the rotation of a fluorescent probe.)

The target in assay [2] is PmrA-DNA complex (Klebsiella pneumoniae, UniProt W9BNR5, I220D/W181G). The assay is described as above. The following applies: read-out: inhibition of PmrA binding to DNA (PmrA-DNA complex formation). On the procedure:
as §1, §2, §3, §4

The target in assay [3] is T1, PmrAC (C-terminal domain of PmrA) (Klebsiella pneumoniae, UniProt W9BNR5).
T1 sequence (W9BNR5 121-223): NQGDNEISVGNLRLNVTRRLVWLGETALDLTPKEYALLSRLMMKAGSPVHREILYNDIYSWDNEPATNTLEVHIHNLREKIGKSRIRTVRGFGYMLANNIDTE
Kind of assay: NMR (2D 1H-15N TROSY-HSQC) compound titration for dissociation constant. On the procedure:
NMR Spectroscopy and Compound Titrations
The preparations of NMR samples were as described previously (Mscielag and Goldschmidt, Expert opinion on investigational drugs 2000, 9, 2351-2369.). Briefly, the activated and inactivated PmrA (0.3 ml, 0.25 mM) were prepared in pH8.0 buffer (20 mM Tris and 100 mM NaCl) with or without BeF3^− activation. PmrAC (0.3 ml, 0.25 mM) was prepared in pH8.0 buffer (20 mM Tris and 100 mM NaCl). All the protein solutions were further loaded in Shigemi NMR tubes (Shigemi Inc.). NMR experiments for activated/inactivated PmrA and PmrAC were conducted at 310 and 298K on Brucker AVANCE 600 or 800 NMR spectrometers (Bruker, Karlsruhe, Germany) equipped with a triple-resonance cryoprobe including a shielded z-gradient. The hetero-nuclear NMR experiments for backbone assignments were performed as described previously in a review article (Garcia-Calderon et al., Journal of Bacteriology 2007, 189, 6635-6644). All the acquired NMR spectra were processed by using NMRPipe (Chen and Groisman, Annual review of microbiology 2013, 67, 83-112) and analyzed with NMRViewJ8.0a.22 (Wosten et al., Molecular microbiology 2006, 60, 39-50). […] The chemical shift changes were calculated through the equation Δδ=[(ΔδNH)^2+(0.17×ΔδN)^2]^0.5, in which ΔδNH and ΔδN are the chemical shift differences for ^1HN and ^15N, respectively. […]

Assay [4] deals with T1, PmrAC (C-terminal domain of PmrA). Kind of assay: Isothermal titration calorimetry (ITC). On the procedure:
Isothermal Titration Calorimetry (ITC)
The binding affinities of PmrAC with compound, E1, was estimated by ITC using a MicroCal iTC200 microcalorimeter. The sample of PmrAC was prepared in reaction buffer (20 mM sodium phosphate, 100 mM NaCl, pH6.0). Compounds were also prepared in reaction buffer (E1=0.4 mM) and titrated into PmrAC (45 μM) at 25° C. The background heat generated from compound to buffer titration was subtracted, and the corrected heat form the binding reaction of PmrAC to E1 was used to derive the association constant (Ka), the enthalpy of binding (ΔH), the change in Gibbs free energy (ΔG), and the entropy changes ([…]) at 298K. All the data were analyzed by using Origin ITC Analysis (MicroCal Software, Northampton, Mass., USA).
(§5) The binding affinity of E1 toward PmrAC (C-terminal domain of PmrA) was further assessed by Isothermal titration calorimetry (ITC) and Bio-layer interferometer (BLI) at the condition described previously (Lou et al., Nature communication 2015, 6, 8838.) (sodium phosphate buffer pH6.0). According to the ITC results, the interaction of E1 with PmrAC appeared to be an exothermic reaction, with a change in enthalpy (ΔH) of −21.4 kcal/mol, change in entropy (AS) of −45.6 […], and N value of 1.09 (FIG. 2, panel G).

Assay [5] shares this target. The assay can be described thus: Bio-layer interferometry (BLI). On the procedure:
Bio-Layer Interferometry (BLI)
The BLI kinetics were obtained by using the ForteBio Octet RED96 instrument (ForteBio, Pall Life Sciences). Recombinant PmrAC carrying C-terminal 6× His tag was immobilized on the HIS1K biosensor in the reaction buffer containing 20 mM sodium phosphate, 100 mM NaCl, pH 6.0 at 25° C. for 180 s prior to kinetic experiment. For the association, the preloading biosensor was exposed to different concentration of E1 (0-37.5 μM) for the period of 300 s. Following the dissociation step, the sensor was subjected to the reaction buffer for 300 s. Kinetic constants, including Kon (association constant, M^−1s^−1) and Koff (dissociation constant, s^−1), were obtained by fitting the reaction model 1:1 kinetics to the reference-subtracted data. The equilibrium dissociation (KD) was calculated as the ratio of Koff to Kon. All calculation was determined using Data Analysis 7 software (ForteBio, Pall Life Sciences).
as §5
On the technique in general: Biolayer interferometry detects binding as a change in optical thickness at a sensor tip.

The term IC50 denotes the concentration that inhibits the measured activity by half. What is called inhibition is the relative decrease from the control value, in per cent. In general, Kd refers to a measure of binding affinity in units of concentration. Higher therefore signals a looser complex. Broadly, the koff is the first-order rate constant of dissociation. For orientation: kon means the second-order rate constant of association.

PmrA-DNA complex (Klebsiella pneumoniae, UniProt W9BNR5, I220D/W181G), sequence (W9BNR5 whole entry I220D/W181G, one chain of several): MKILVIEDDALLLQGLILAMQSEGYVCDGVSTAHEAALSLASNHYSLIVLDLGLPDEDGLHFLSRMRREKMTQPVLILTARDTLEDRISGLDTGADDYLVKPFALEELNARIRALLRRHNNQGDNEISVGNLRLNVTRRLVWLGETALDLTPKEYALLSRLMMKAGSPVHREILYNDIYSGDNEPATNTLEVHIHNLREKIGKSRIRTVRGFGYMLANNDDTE
PmrA-DNA complex (Klebsiella pneumoniae, UniProt W9BNR5), sequence (W9BNR5 whole entry I220D/W181G, one chain of several): as above

On to `O=S(=O)(O)c1ccc(-c2ncc(-c3ccc(-c4cnc(-c5ccc(S(=O)(=O)O)cc5)o4)cc3)o2)cc1` [Compound E1], for which the midpoint of inhibition on PmrA-DNA complex [1], the IC50, lay at 10.2 ± 2.6 µM. In addition, the inhibition at 50 µM on PmrA-DNA complex [2] amounted to 70.2 ± 3.2%. Besides, the Kd in assay [3] was found to be 126 ± 34.6 µM; in assay [4], 1700 nM; in assay [5] it was 2600 ± 100 nM. In addition, in assay [5] (read-out: Koff rate), the koff was 0.251 s⁻¹. Further, the kon in assay [5] (read-out: Kon rate) was 94900 M⁻¹ s⁻¹.

`O=S(=O)(O)CCOCC1CSSCC(COCCS(=O)(=O)O)SS1` (centres unmarked) [Compound E2] came in with an IC50 against PmrA-DNA complex [1] of 42.5 ± 2.9 µM. Moreover, the inhibition at 50 µM on PmrA-DNA complex [2] stood at 55.9 ± 2.7%.

Molecule `O=S(=O)(O)CC1CSSCC(CS(=O)(=O)O)SS1` (centres unmarked) [Compound E3] yielded an IC50 at PmrA-DNA complex [1] of 100 ± 2.5 µM. The inhibition at 50 µM on PmrA-DNA complex [2] was 27.4 ± 1.8%.

These data come from patent US10894037B2, “Inhibitors of bacterial two component signal transduction system and uses thereof” (priority 2017, dated 2021).
